Target: T1, G protein-coupled receptor-91 (GPR91) (Rattus norvegicus, UniProt Q6IYF9)
T1 construct: gene Sucnr1
Test: cell-based

T1 sequence (Q6IYF9 whole entry): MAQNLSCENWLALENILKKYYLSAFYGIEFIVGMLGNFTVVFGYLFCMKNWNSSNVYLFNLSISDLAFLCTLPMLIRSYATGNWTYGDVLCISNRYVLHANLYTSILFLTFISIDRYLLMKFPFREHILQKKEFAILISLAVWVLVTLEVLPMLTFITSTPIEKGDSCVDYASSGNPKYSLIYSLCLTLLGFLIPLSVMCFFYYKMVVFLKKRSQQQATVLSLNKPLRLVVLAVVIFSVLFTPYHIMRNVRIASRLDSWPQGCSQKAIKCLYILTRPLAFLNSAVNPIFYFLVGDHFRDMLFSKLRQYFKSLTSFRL

Structure (SMILES): O=C(O)CCC(=O)O [succinate]
- EC50: 154 µM
